Values of other authors in publication PMC3850926, “Evaluation of the adverse event profile and pharmacodynamics of toceranib phosphate administered to dogs with solid tumors at doses below the maximum tolerated dose” (BMC Veterinary Research, 2013).

What was measured:
VEGF = test system: VEGF; design: method as in PMID 19212818; conditions: human patients; return to baseline during rest period; cited from earlier work
human cancer patients = conditions: cited from earlier work

In the case of `CCN(CC)CCNC(=O)c1c(C)[nH]c(/C=C2\C(=O)Nc3ccc(F)cc32)c1C` [sunitinib], the “circulating endothelial precursors and plasma VEGF during treatment” value (VEGF) is given as “increase over time during treatment”, the “incidence of PLN” value (human cancer patients; human cancer patients) is given as “approximately 2.5%” and the “hypertension classified as grade 3” value (human cancer patients; human patients with RCC) is given as 8%. The “patients that developed hypertension” value (human cancer patients; human patients with renal cell carcinoma (RCC)) was 24%.
